Laboratory results published in patent publication US20130096160A1, “ARYLTHIAZOLYL PIPERIDINES AND RELATED COMPOUNDS AS MODULATORS OF SURVIVAL MOTOR NEURON (SMN) PROTEIN PRODUCTION” (Secretary, Department of Health and Human Services, priority 2010, published 2013).

Test system: SMN2-luciferase reporter
Experiment: SMN2-luciferase reporter qHTS assay
Format: cell-based, human
Parameters: key to Curve Class: A curve class of 1.1 is a full agonist/antagonist; a curve class of 4 indicates the compound is inactive
Conditions: for Curve Class: agonist/antagonist character of the concentration-response, lower values = more significant concentration-response; for Increased SMN2 activity: percent increase (or decrease) in SMN2 levels compared to control in which no test compound is added
Excerpt: A cell-based quantitative high throughput screening (qHTS) assay is used to identify compounds able to increase SMN production. The assay uses a SMN2-luciferase reporter to determine if exon 7 of the SMN gene is expressed, which correlates with increased full-length SMN production from the SMN2 gene. As controls, a homologue SMN1-luciferase reporter cell line looks for variations in expression of the SMN1 gene and a cell line with just the luciferase reporter looks at the capacity of the compounds to inhibit luciferase. In addition, increments in SMN production by lead compounds were confirmed by Western-Blot analysis using SMA patient fibroblasts.
For the qHTS assay, concentration-response profiles are generated at the primary-screen level for each library compound to minimize the number of false positives. A dilution series consisting of seven points separated by five-fold concentration differences is prepared for each compound, yielding a concentration series that spans a range of about four orders of magnitude, for example from a high concentration of 50 micromolar to a low concentration of 3.2 nanomolar and providing adequate data for fitting to a Hill equation. For the assay, the SMN2 reporter cell line was plated at a density of ˜2000 cells/well in complete media (phenol red free DMEM, 10% detacl calf serum, and 1× pen/strep), in 1536 well white solid bottom tissue culture treated plates (Greiner). Cells were allowed to adhere and recover at 37 C in 5% CO2 for 10-12 hours. Compounds were added to the plates by a Pintool (Kalypsys) at a volume of 23 nl/well. Cells were incubated in the presence of compounds for 2 days at 37 C in 5% CO2. In order to quantify luciferase reporter levels, 3 ul/well of OneGlo (Promega) was added to each well and incubated at room temperature for 10 minutes. Luminescence from the reporter in each well is measured using a Viewlux CCD based imager (Perkin Elmer) with an integration time of 30 seconds and a binning of 2× in luminescence mode. Sodium butyrate was used as the positive control compound for luciferase induction and a column of 32 wells of 9.2 mM compound on each plate was used to monitor assay performance.
The SMN reporters used herein are modified from those previously described (M. L. Zhang, C. L. Lorson, E. J. Androphy and J. Zhou, An in vivo reporter system for measuring increased inclusion of exon 7 in SMN2 mRNA: potential therapy of SMA, Gene Ther 8 (2001), pp. 1532-1538.)
The sequence of the SMN1 reporter vector used herein is given in SEQ ID NO.:1, while that of the SMN2 reporter vector is given in SEQ ID NO.:2.
Each of the SMN reporters is constructed from three separate DNA fragments: (1) an SMN promotor sequence from the transcriptional reporter p 4.0T (SMN1) or p3.4C (SMN2) described in Monani, et al. Biochimica et Biophysica Acta 1445 (1999) 330-336; (2) a modification of the firefly luciferase splicing reporter for SMN1 or SMN2 described by Zhang et al; and (3) a 744 bp SMN cDNA fragment.
The 3.7 kB SMN1 promoter fragment is obtained by restriction of p4.0T with BglII and SacII. A 3.4 kB SMN2 promoter fragment is obtained by restriction of p3.4C with KpnI and SacII; a 300 bp BglII/KpnI fragment from p4.0T is then added to the 3.4 kB SMN2 promoter fragment to yield the final 3.7 kB SMN2 promoter fragment.
The modified SMN1 and SMN2 firefly luciferase splicing reporters are obtained by removing 4 kB of intron 6 in the original reporter system by restriction with SmaI/Swa followed by religation of the reporter. A 4 kB luciferase splicing reporter is then obtaind by digestion with XhoI and NotI.
Ths SMN cDNA fragment is obtained by generating the productof a polymerase chain reaction (PCR) on a cDNA preparation using […] (SEQ ID NO:3) as the forward primer and Tatctcgagtggtccagaaggaaatggaggcagcc (SEQ ID NO:4) as the reverse primer. The PCR product is then digested with XhoI and SacII. […]

Compound	Curve Class	Increased SMN2 activity [%]
CN(C)c1cccc(-c2ccnc(N3CCC(C(N)=O)CC3)n2)c1 [Example 90, 1-(4-(3-(Dimethylamino)Phenyl)Pyrimidin-2-yl)Piperidine-4-Carboxamide]	1.1	446.3
NC(=O)C1CCN(c2nc(-c3cccc(F)c3)cs2)CC1 [Example 33, 1-(4-(3-Fluorophenyl)Thiazol-2-yl)Piperidine-4-Carboxamide]	2.2	64
NC(=O)C1CCN(c2ncc(-c3ccc4c(c3)OCCO4)s2)CC1 [Example 120, 1-(5-(2,3-Dihydrobenzo[B][1,4]Dioxin-6-yl)Thiazol-2-yl)Piperidine-4-Carboxamide]	1.1	424.6
NC(=O)C1CCN(c2ncc(-c3cccc(F)c3)s2)CC1 [Example 121, 1-(5-(3-Fluorophenyl)Thiazol-2-yl)Piperidine-4-Carboxamide]	1.1	601.5
Cc1ccc(-c2nnc(N3CCC(C(N)=O)CC3)s2)cc1 [Example 133, 1-(5-P-Tolyl-1,3,4-Thiadiazol-2-yl)Piperidine-4-Carboxamide]	1.2	54
NC(=O)C1CCN(c2nc(-c3ccc(F)cc3)cs2)CC1 [Example 19, 1-(4-(4-Fluorophenyl)Thiazol-2-yl)Piperidine-4-Carboxamide]	1.1	287.7
NC(=O)C1CCN(c2nc(-c3ccc(OC(F)(F)F)cc3)cs2)CC1 [Example 95, 1-(4-(4-(Trifluoromethoxy)Phenyl)Thiazol-2-yl)Piperidine-4-Carboxamide]	1.1	296.8
NC(=O)C1CCN(c2nnc(-c3ccc4c(c3)OCCCO4)s2)CC1 [Example 130, 1-(5-(3,4-Dihydro-2H-Benzo[B][1,4]Dioxepin-7-yl)-1,3,4-Thiadiazol-2-yl)Piperidine-4-Carboxamide]	1.1	257.1
N#Cc1ccc(-c2csc(N3CCC(C(N)=O)CC3)n2)cc1 [Example 18, 1-(4-(4-Cyanophenyl)Thiazol-2-yl)Piperidine-4-Carboxamide]	2.2	48.75
CN(C)c1cccc(-c2ncnc(N3CCC(C(N)=O)CC3)n2)c1 [Example 145, 1-(4-(3-(Dimethylamino)Phenyl)-1,3,5-Triazin-2-yl)Piperidine-4-Carboxamide]	1.1	199.9
NC(=O)C1CCN(c2nc(-c3ccccc3F)cs2)CC1 [Example 38, 1-(4-(2-Fluorophenyl)Thiazol-2-yl)Piperidine-4-Carboxamide]	1.1	274.6
CN(C)c1cccc(-c2cc(N3CCC(C(N)=O)CC3)ncn2)c1 [Example 143, 1-(6-(3-(Dimethylamino)Phenyl)Pyrimidin-4-yl)Piperidine-4-Carboxamide]	2.1	81.27
NC(=O)C1CCN(c2nc(-c3cc4ccccc4o3)cs2)CC1 [Example 68, 1-(4-(Benzofuran-2-yl)Thiazol-2-yl)Piperidine-4-Carboxamide]	2.1	100
CN(C)C(=O)C1CCN(c2nc(-c3ccc(Br)cc3)cs2)CC1 [Example 71, 1-(4-(4-Bromophenyl)Thiazol-2-yl)-N,N-Dimethylpiperidine-4-Carboxamide]	2.4	42.71
NC(=O)C1CCN(c2nccc(-c3ccc4c(c3)OCCO4)n2)CC1 [Example 129, 1-(4-(2,3-Dihydrobenzo[B][1,4]Dioxin-6-yl)Pyrimidin-2-yl)Piperidine-4-Carboxamide]	1.1	364.3
NC(=O)C1CCN(c2ncc(-c3cccc(N4CCCCC4)c3)s2)CC1 [Example 138, 1-(5-(3-(Piperidin-1-yl)Phenyl)Thiazol-2-yl)Piperidine-4-Carboxamide]	1.1	565.6
c1c[nH]c(C2CCN(c3ncc(-c4ccc5c(c4)OCCCO5)s3)CC2)n1 [Example 135, 2-(4-(1H-Imidazol-2-yl)Piperidin-1-yl)-5-(3,4-Dihydro-2H-Benzo[B][1,4] Dioxepin-7-yl)Thiazole]	1.1	129.4
CN(C)c1cccc(-c2ncc(F)c(N3CCC(C(N)=O)CC3)n2)c1 [Example 152, 1-(2-(3-(Dimethylamino)Phenyl)-5-Fluoropyrimidin-4-yl)Piperidine-4-Carboxamide]	1.1	141.8
COc1cc(-c2csc(N3CCC(C(N)=O)CC3)n2)cc(OC)c1OC [Example 84, 1-(4-(3,4,5-Trimethoxyphenyl)Thiazol-2-yl)Piperidine-4-Carboxamide]	2.2	73.33
COc1ccc(-c2cnc(N3CCC(C(N)=O)CC3)s2)cc1OC [Example 150, 1-(5-(3,4-Dimethoxyphenyl)Thiazol-2-yl)Piperidine-4-Carboxamide]	1.1	209.7
Cn1ccc2cc(-c3csc(N4CCC(C(N)=O)CC4)n3)ccc21 [Example 65, 1-(4-(1-Methyl-1H-Indol-5-yl)Thiazol-2-yl)Piperidine-4-Carboxamide]	1.1	534
N#CC1CCN(c2nc(-c3ccc(Br)cc3)cs2)CC1 [Example 102, 1-(4-(4-Bromophenyl)Thiazol-2-yl)Piperidine-4-Carbonitrile]	2.2	77.87
COc1ccc(-c2csc(N3CCC(C(N)=O)CC3)n2)cc1OC [Example 83, 1-(4-(3,4-Dimethoxyphenyl)Thiazol-2-yl)Piperidine-4-Carboxamide]	2.4	58.51
NC(=O)C1CCN(c2nc(-c3cccc4sc5ccccc5c34)cs2)CC1 [Example 64, 1-(4-(Dibenzo[b,d]Thiophen-1-yl)Thiazol-2-yl)Piperidine-4-Carboxamide]	2.1	369
O=C(NCCc1ccccc1)C1CCN(c2nc(-c3ccc(Br)cc3)cs2)CC1 [Example 77, 1-(4-(4-Bromophenyl)Thiazol-2-yl)-N-Phenethylpiperidine-4-Carboxamide]	2.4	31.29
NC1CCN(c2nc(-c3ccc(Br)cc3)cs2)CC1 [Example 111, 1-(4-(4-Bromophenyl)Thiazol-2-yl)Piperidin-4-Amine]	1.1	182.6
CN(C)c1cccc(-c2cnc(N3CCC(C(N)=O)CC3)nc2)c1 [Example 89, 1-(5-(3-(Dimethylamino)Phenyl)Pyrimidin-2-yl)Piperidine-4-Carboxamide]	1.1	236.25
CC(=O)NC1CCN(c2nc(-c3ccc(Br)cc3)cs2)CC1 [Example 113, N-(1-(4-(4-Bromophenyl)Thiazol-2-yl)Piperidin-4-yl)Acetamide]	−1.4	−56.62
NC(=O)C1CCN(c2nc(-c3ccccc3Cl)cs2)CC1 [Example 39, 1-(4-(2-Chlorophenyl)Thiazol-2-yl)Piperidine-4-Carboxamide]	2.2	57.61
